Experimental data taken from patent US20250120951A1, “CLEMIZOLE FORMULATION” (EPYGENIX THERAPEUTICS, INC., priority 2021, published 2025).
Values joined by “and” are separate entries in the source; they are usually repeats but may differ in a detail not shown here. Equal entries are not always repeated. Structures can show the parent of a compound that is named as a salt. Where two headings read alike, the source gives them in different places.

How the values were obtained:
[1] = Solubility testing for clemizole HCl in solvent systems (Example 1); format: physicochemical
Protocol: Solubility testing for clemizole HCl in a compatible solvent system was conducted to identify a buffer system that solubilized the required concentration of clemizole HCl without any precipitation. […] Actual clemizole HCl solubility values in each of the solvent systems are described in Table 1.

[2] = Excipient compatibility: clemizole HCl assay and total related substances, 14 days at 50° C. (Example 4); format: physicochemical
Protocol: In an example, various excipients were examined at the 14-day time point (50° C.) to guide the decision on the choice of excipients to be used during formulation development. Table 5 below illustrates the stability of clemizole HCl at day 14 following incubation in the various formulations listed.
However, due to the poor solubility of ethyl parahydroxybenzoate, either a solubilizer such as PEG400, or a soluble form of ethyl parahydroxybenzoate, such as the sodium salt, would be required. Glycerol was compatible with clemizole HCl and may be used to improve the taste formulation.

## Clc1ccc(Cn2c(CN3CCCC3)nc3ccccc32)cc1 [clemizole HCl]
[1]; 0.1 M HCl, simulated gastric fluid, 0.1M HCl 100% w/w, read-out: Actual Solubility
  solubility: 11 mg/mL
[1]; Solutol HS15 solution, 40 °C, aqueous with cosolvent or surfactant or cyclodextrin, 20% w/w solution of Solutol HS15 at 40° C., read-out: solubility of clemizole HCl
  solubility: 36 mg/mL
[1]; citrate buffer, pH 4.5, aqueous buffer, pH 4.5 Citrate Buffer 100% w/w, read-out: Actual Solubility
  solubility: 12.7 mg/mL
[1]; citrate buffer, pH 4.5, aqueous with cosolvent or surfactant or cyclodextrin, pH 4.5 Citrate Buffer 79.5 / PEG400 20.0 / Sodium ascorbate 0.5 % w/w, read-out: Actual Solubility
  solubility: 9.29 mg/mL
[1]; citrate buffer, pH 4.5, aqueous with cosolvent or surfactant or cyclodextrin, pH 4.5 Citrate Buffer 80.0 / Glycerol 20.0 % w/w, read-out: Actual Solubility
  solubility: 13.5 mg/mL
[1]; citrate buffer, pH 4.5, aqueous with cosolvent or surfactant or cyclodextrin, pH 4.5 Citrate Buffer 80.0 / Propylene glycol 20.0 % w/w, read-out: Actual Solubility
  solubility: 11.4 mg/mL
[1]; citrate buffer, pH 4.5, aqueous with cosolvent or surfactant or cyclodextrin, pH 4.5 Citrate Buffer 90.0 / 2-Hydroxypropyl-β-cyclodextrin 10.0 % w/w, read-out: Actual Solubility
  solubility: 29.9 mg/mL
[1]; citrate buffer, pH 4.5, aqueous with cosolvent or surfactant or cyclodextrin, pH 4.5 Citrate Buffer 94.5 / Polysorbate 20 5.0 / Sodium ascorbate 0.5 % w/w, read-out: Actual Solubility
  solubility: 21.4 mg/mL
[1]; citrate buffer, pH 4.5, aqueous with cosolvent or surfactant or cyclodextrin, pH 4.5 Citrate Buffer 94.5 / Polysorbate 80 5.0 / Sodium ascorbate 0.5 % w/w, read-out: Actual Solubility
  solubility: 24.6 mg/mL
[1]; citrate buffer, pH 4.5, aqueous with cosolvent or surfactant or cyclodextrin, pH 4.5 Citrate Buffer 95.0 / Cremophor ELP 5.0 % w/w, read-out: Actual Solubility
  solubility: 19.1 mg/mL
[1]; citrate buffer, pH 4.5, aqueous with cosolvent or surfactant or cyclodextrin, pH 4.5 Citrate Buffer 95.0 / Cremophor RH40 5.0 % w/w, read-out: Actual Solubility
  solubility: 19.7 mg/mL
[1]; citrate buffer, pH 4.5, aqueous with cosolvent or surfactant or cyclodextrin, pH 4.5 Citrate Buffer 95.0 / Solutol HS15 5.0 % w/w, read-out: Actual Solubility
  solubility: 19.8 mg/mL
[1]; citrate buffer, pH 4.5, aqueous with cosolvent or surfactant or cyclodextrin, pH 4.5 Citrate Buffer 95.0 / TPGS 5.0 % w/w, read-out: Actual Solubility
  solubility: 25.9 mg/mL
[1]; freeze-thawing
  effect of freeze-thawing on clemizole HCl solubility: does not appear to reduce
[1]; phosphate buffer, pH 6.8, aqueous buffer, pH 6.8 Phosphate Buffer 100% w/w, read-out: Actual Solubility
  solubility: 0.06 mg/mL
[1]; phosphate buffer, pH 6.8, aqueous with cosolvent or surfactant or cyclodextrin, pH 6.8 Phosphate Buffer 79.5 / PEG400 20.0 / Sodium ascorbate 0.5 % w/w, read-out: Actual Solubility
  solubility: 0.28 mg/mL
[1]; phosphate buffer, pH 6.8, aqueous with cosolvent or surfactant or cyclodextrin, pH 6.8 Phosphate Buffer 80.0 / Glycerol 20.0 % w/w, read-out: Actual Solubility
  solubility: 0.07 mg/mL
[1]; phosphate buffer, pH 6.8, aqueous with cosolvent or surfactant or cyclodextrin, pH 6.8 Phosphate Buffer 80.0 / Propylene glycol 20.0 % w/w, read-out: Actual Solubility
  solubility: 0.08 mg/mL
[2]; 50° C., 14 day, mean
  Assay Results (%) 50° C., 14 day Mean: 100.9%
[2]; 50° C., 14 day, single replicates, listed as API only, HCl
  Assay Results (%) 50° C., 14 day: 101.1% and 100.7%
[2]; Initial, mean
  Assay Results (%) Initial Mean: 100.5%
[2]; Initial, single replicates, listed as API only, HCl
  Assay Results (%) Initial: 100.0% and 101.0%
